Here are results for 22 compounds from ChEMBL document CHEMBL3826974, “Discovery of MK-8718, an HIV Protease Inhibitor Containing a Novel Morpholine Aspartate Binding Group” (ACS Med Chem Lett, 2016).

SMILES strings stand for the structures.

As a reminder, the bioavailability is the share of a dose that reaches the circulation, judged against a reference dose that is usually intravenous. What is called IC50 is the concentration that inhibits the measured activity by half. Broadly, the IC95 is the concentration at which the effect reaches the 95% level. The term inhibition denotes the percentage by which the read-out fell short of the control.

Data set [1] is described as follows: Oral bioavailability in rat at 5 mg/kg. The data set is classed as ADME, organism-based. The following applies: in vivo.
A further data set has as its target Protease (Human immunodeficiency virus 1, UniProt Q9YQ12). Nature of the data set: Inhibition of wild-type HIV1 protease expressed in Escherichia coli assessed as reduction in product formation preincubated for 30 mins followed by addition of Val-Ser-Gln-Asn-(beta-naphtyl)Ala-Pro-Ile-Val as substrate measured after 1 hr.
Data set [2] concerns Human immunodeficiency virus 1. Nature of the data set: Antiviral activity against HIV-1 infected in human MT4 cells assessed as inhibition of viral infection measured after 72 hrs. Conditions: Human immunodeficiency virus 1, MT4, 72 h. The data set is classed as functional.
The nature of data set [3]: Clearance in rat at 1 mg/kg, iv or 5 mg/kg, po. It counts as ADME, organism-based. The following applies: in vivo.
Data set [4] relates to Human immunodeficiency virus. Nature of the data set: Inhibition of HIV protease at 1 uM.
Data set [5] is described as follows: Clearance in rat at 2 mg/kg, iv or 10 mg/kg, po. It counts as ADME, organism-based. The following applies: in vivo.
The nature of data set [6]: Oral bioavailability in rat at 10 mg/kg. Conditions: in vivo. It counts as ADME, organism-based.

Chain of Protease (Q9YQ12 whole entry): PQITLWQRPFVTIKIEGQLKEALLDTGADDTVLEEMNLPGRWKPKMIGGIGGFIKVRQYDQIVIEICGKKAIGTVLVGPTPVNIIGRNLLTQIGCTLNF

Regarding `COC(=O)N[C@H](C(=O)Nc1cccc(F)c1CC[C@@H]1CN[C@H](COC(=O)NCC(F)(F)F)CO1)C(c1ccccc1)c1ccccc1`, the bioavailability in data set [1] was 37%. The IC50 on Protease turned out to be 12 nM. Besides, the IC95 in data set [2] was found to be 95 nM. The clearance in data set [3] is 36 mL/min/kg.
Regarding `COC(=O)N[C@H](C(=O)Nc1ccccc1CC[C@@H]1CN[C@H](COC(=O)NC(C)C)CO1)C(c1ccccc1)c1ccccc1`, in data set [1], the bioavailability was 33%. Moreover, the IC50 at Protease came to 37 nM. The IC95 in data set [2] was 190 nM. This compound also had a clearance in data set [3] of 60 mL/min/kg.
The corresponding values for `COC(=O)N[C@H](C(=O)Nc1ccccc1CC[C@@H]1CN[C@H](COC(=O)NCC(F)(F)F)CO1)C(c1ccccc1)c1ccccc1` are 19%, 27 nM, 120 nM and 36 mL/min/kg.
For `COC(=O)N[C@H](C(=O)Nc1ccccc1CC[C@@H]1CN[C@H](COC(=O)NCc2ccc(Cl)s2)CO1)C(c1ccccc1)c1ccccc1`, in that order: 13%, 2.4 nM, 170 nM and 33 mL/min/kg.
`COC(=O)N[C@H](C(=O)Nc1ccccc1CC[C@@H]1CN[C@H](COC(N)=O)CO1)C(c1ccccc1)c1ccccc1` displayed a bioavailability in data set [1] of 16%. Besides, the IC50 at Protease turned out to be 20 nM. In addition, the IC95 in data set [2] worked out at 120 nM. For the same compound, the clearance in data set [3] stood at 30 mL/min/kg.
On to `N[C@H](C(=O)Nc1cncc(F)c1CC[C@@H]1CN[C@H](COC(=O)NCC(F)(F)F)CO1)[C@@H](c1ccc(F)cc1)c1cc(F)cc(F)c1`, for which, on Protease, the IC50 stood at 2.4 nM. For the same compound, the IC95 in data set [2] is 130 nM.
The compound `COC(=O)N[C@H](C(=O)NCCCC1CNCCO1)C(c1ccccc1)c1ccccc1` (stereo partly drawn) displayed an inhibition in data set [4] of 11%.
For the compound `N[C@H](C(=O)Nc1cncc(F)c1CC[C@@H]1CN[C@H](COC(=O)NCC(F)(F)F)CO1)[C@@H](c1ccc(F)cc1)c1cccc(F)c1`, the clearance in data set [5] stood at 16 mL/min/kg. Further, on Protease, the IC50 turned out to be 2.4 nM. For the same compound, the IC95 in data set [2] stood at 66 nM. Further, in data set [6], the bioavailability turned out to be 37%.
Compound `COC(=O)N[C@H](C(=O)Nc1ccccc1CC[C@@H]1CN[C@H](COC(=O)NCc2cccc(Cl)n2)CO1)C(c1ccccc1)c1ccccc1` registered a bioavailability in data set [1] of 17%. Further, the IC50 at Protease was found to be 3.4 nM. The IC95 in data set [2] was determined as 150 nM. Besides, the clearance in data set [3] came out at 45 mL/min/kg.
The compound `N[C@H](C(=O)Nc1cncc(F)c1CC[C@@H]1CN[C@H](COC(=O)NCC(F)(F)F)CO1)C(c1ccccc1)c1ccccc1` registered a clearance in data set [5] of 13 mL/min/kg. Besides, the IC50 on Protease was 9.9 nM. Also, the IC95 in data set [2] is 150 nM. Also, in data set [6], the bioavailability turned out to be 59%.
For the compound `COC(=O)N[C@H](C(=O)Nc1ccccc1CC[C@@H]1CN[C@H](COC(=O)NCc2ccc(F)cc2)CO1)C(c1ccccc1)c1ccccc1`, the bioavailability in data set [1] was determined as 47%. Also, the IC50 on Protease is 4.1 nM. Moreover, the IC95 in data set [2] is 170 nM. Besides, the clearance in data set [3] came out at 49 mL/min/kg.
Compound `N[C@H](C(=O)Nc1cncc(F)c1CC[C@@H]1CN[C@H](COC(=O)NCC(F)(F)F)CO1)[C@@H](c1ccc(Cl)cc1)c1cc(F)cc(F)c1` showed a clearance in data set [5] of 11 mL/min/kg. Besides, the IC50 on Protease is 0.8 nM. Further, the IC95 in data set [2] was found to be 49 nM. In data set [6], this compound yielded a bioavailability of 25%.
For the compound `N[C@H](C(=O)Nc1cccc(F)c1CC[C@@H]1CN[C@H](COC(=O)NCC(F)(F)F)CO1)C(c1ccccc1)c1ccccc1`, the IC50 at Protease is 3.1 nM. In data set [2], the IC95 turned out to be 230 nM.
In data set [1], `COC(=O)N[C@H](C(=O)Nc1ccccc1CC[C@@H]1CN[C@H](COC(=O)N[C@H]2CCc3ccccc32)CO1)C(c1ccccc1)c1ccccc1` showed a bioavailability of less than 5%. Also, at Protease, the IC50 was found to be 3.5 nM. Also, the IC95 in data set [2] amounted to 63 nM. The compound also registered a clearance in data set [3] of 87 mL/min/kg.
The corresponding values for `COC(=O)N[C@H](C(=O)Nc1cnccc1CC[C@@H]1CN[C@H](COC(=O)NCC(F)(F)F)CO1)C(c1ccccc1)c1ccccc1` are less than 5%, 14 nM, 330 nM and 81 mL/min/kg.
For `COC(=O)N[C@H](C(=O)Nc1ccccc1CC[C@@H]1CN[C@H](COC(=O)NCc2ccccc2)CO1)C(c1ccccc1)c1ccccc1`, in that order: less than 5%, 6.1 nM, 200 nM and 27 mL/min/kg.
Consider `N[C@H](C(=O)Nc1cccc(F)c1CC[C@@H]1CN[C@H](COC(=O)NCC(F)(F)F)CO1)[C@@H](c1ccc(F)cc1)c1cc(F)cc(F)c1`, for which the clearance in data set [5] is 22 mL/min/kg. Besides, the IC50 at Protease was 8.2 nM. Moreover, the IC95 in data set [2] is 61 nM. This compound also displayed a bioavailability in data set [6] of 14%.
Turning to `COC(=O)N[C@H](C(=O)Nc1ccccc1CC[C@@H]1CN[C@H](COC(=O)N[C@@H]2CCc3ccccc32)CO1)C(c1ccccc1)c1ccccc1`, the bioavailability in data set [1] is less than 5%. Also, the IC50 on Protease came out at 9.7 nM. The IC95 in data set [2] was found to be 370 nM. For the same compound, the clearance in data set [3] turned out to be 110 mL/min/kg.
In the case of `COC(=O)N[C@H](C(=O)Nc1cncc(F)c1CC[C@@H]1CN[C@H](COC(=O)NCC(F)(F)F)CO1)C(c1ccccc1)c1ccccc1`, the bioavailability in data set [1] came out at 15%. The IC50 at Protease amounted to 3.5 nM. Also, in data set [2], the IC95 turned out to be 94 nM. For the same compound, the clearance in data set [3] was 11 mL/min/kg.
As to `COC(=O)N[C@H](C(=O)Nc1ccccc1CC[C@@H]1CN[C@H](COC(=O)NCc2ccccc2F)CO1)C(c1ccccc1)c1ccccc1`, the IC50 at Protease stood at 3.6 nM. For the same compound, the IC95 in data set [2] was 180 nM. This compound had a clearance in data set [3] of 61 mL/min/kg.
The compound `N[C@H](C(=O)Nc1cccc(F)c1CC[C@@H]1CN[C@H](COC(=O)NCC(F)(F)F)CO1)[C@@H](c1ccc(F)cc1)c1cccc(F)c1` showed a clearance in data set [5] of 45 mL/min/kg. The IC50 at Protease is 6.4 nM. In addition, the IC95 in data set [2] came out at 75 nM. The same compound showed a bioavailability in data set [6] of 30%.
On to `COC(=O)N[C@H](C(=O)N[C@@H](Cc1ccccc1)[C@@H](O)CN(Cc1ccc(-c2ccccn2)cc1)NC(=O)[C@@H](NC(=O)OC)C(C)(C)C)C(C)(C)C` [ATAZANAVIR], for which the IC50 at Protease came to 0.04 nM. In addition, the IC95 in data set [2] was 17 nM.
